Results reported in BindingDB's records for doi:10.7270/Q280511V (University of Pittsburgh, 2008).

Target: Serine/threonine-protein kinase PLK1 (Homo sapiens, UniProt P53350)
Experiment: PLK1 polo-box domain peptide-binding inhibitors, SAR follow-up, biochemical, fluorescence polarization, synthesized analogs, concentration response (AID 1057)

Sequence of Serine/threonine-protein kinase PLK1 (P53350 whole entry, the tested form may be a part): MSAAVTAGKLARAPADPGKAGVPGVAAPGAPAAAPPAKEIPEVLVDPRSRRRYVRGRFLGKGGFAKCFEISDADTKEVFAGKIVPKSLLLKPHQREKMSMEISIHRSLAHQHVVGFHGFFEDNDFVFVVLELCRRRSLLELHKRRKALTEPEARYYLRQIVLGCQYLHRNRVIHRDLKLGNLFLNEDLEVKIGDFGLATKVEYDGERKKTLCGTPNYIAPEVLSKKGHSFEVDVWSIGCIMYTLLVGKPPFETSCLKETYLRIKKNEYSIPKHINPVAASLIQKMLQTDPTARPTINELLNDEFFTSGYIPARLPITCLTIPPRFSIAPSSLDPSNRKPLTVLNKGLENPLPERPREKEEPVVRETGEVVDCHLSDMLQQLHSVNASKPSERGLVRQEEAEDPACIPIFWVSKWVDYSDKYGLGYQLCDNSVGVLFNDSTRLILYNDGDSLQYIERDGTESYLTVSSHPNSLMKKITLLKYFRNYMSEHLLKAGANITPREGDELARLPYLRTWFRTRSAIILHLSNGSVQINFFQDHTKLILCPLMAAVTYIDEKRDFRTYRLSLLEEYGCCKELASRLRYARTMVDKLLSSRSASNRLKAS

| Structure (SMILES) | IC50 [µM] |
| --- | --- |
| CCOC(=O)c1ccc(NC(=O)c2c(O)[nH]c(=O)[nH]c2=O)cc1 | > 50 |
| CCOC(=O)c1ccccc1NC(=O)c1c(O)[nH]c(=O)[nH]c1=O | > 50 |
| CCOC(=O)c1ccccc1NC(=O)c1c(O)[nH]c(=S)[nH]c1=O | > 50 |
| O=C(Nc1ccccc1)c1c(O)[nH]c(=O)[nH]c1=O | > 50 |
| O=C(Nc1ccccc1)c1c(O)[nH]c(=S)[nH]c1=O | > 50 |
| CCOc1ccc(NC(=O)c2c(N)n(C)c(=O)[nH]c2=O)cc1 | > 50 |
| CC(NNC(=O)c1ccncc1)=C1C(=O)NC(=O)NC1=O | > 50 |
| Cc1ccc(NC(=O)c2ccc(F)cc2F)cc1 [2,4-bis(fluoranyl)-N-(4-methylphenyl)benzamide] | > 50 |
| O=C(Nc1ccccc1)c1ccc(F)cc1F [2,4-bis(fluoranyl)-N-phenyl-benzamide] | > 50 |
| CCOc1ccc(NC(=O)c2ccc(F)cc2F)cc1 [2,4-difluoro-N-p-phenetyl-benzamide] | > 50 |
| CCOC(=O)c1ccccc1NC(=O)c1ccc(F)cc1F [2-[(2,4-difluorobenzoyl)amino]benzoic acid ethyl ester] | > 50 |
| CCOC(=O)c1cccc(NC(=O)c2ccc(F)cc2F)c1 [3-[(2,4-difluorobenzoyl)amino]benzoic acid ethyl ester] | > 50 |
| CCOC(=O)c1cccc(NC(=O)c2c(O)[nH]c(=O)[nH]c2=O)c1 [3-[[(6-hydroxy-2,4-dioxo-1H-pyrimidin-5-yl)-oxomethyl]amino]benzoic acid ethyl ester] | > 50 |
| CCCCOC(=O)c1ccc(NC(=O)c2ccc(F)cc2F)cc1 [4-[(2,4-difluorobenzoyl)amino]benzoic acid butyl ester] | > 50 |
| CCOC(=O)c1ccc(NC(=O)c2ccc(F)cc2F)cc1 [4-[(2,4-difluorobenzoyl)amino]benzoic acid ethyl ester] | > 50 |
| CCOC(=O)c1ccc(NS(=O)(=O)c2c(N)n(C)c(=O)n(C)c2=O)cc1 [4-[(4-amino-1,3-dimethyl-2,6-dioxo-5-pyrimidinyl)sulfonylamino]benzoic acid ethyl ester] | > 50 |

| Structure (SMILES) | IC50 [µM] |
| --- | --- |
| CCOC(=O)c1ccc(NC(=O)c2c(N)n(C)c(=O)n(C)c2=O)cc1 [4-[(4-amino-2,6-diketo-1,3-dimethyl-pyrimidine-5-carbonyl)amino]benzoic acid ethyl ester] | > 50 |
| CCCCOC(=O)c1ccc(NC(=O)c2c(N)n(C)c(=O)[nH]c2=O)cc1 [4-[[(6-amino-1-methyl-2,4-dioxo-5-pyrimidinyl)-oxomethyl]amino]benzoic acid butyl ester] | > 50 |
| CCCCOC(=O)c1ccc(NC(=O)c2c(O)[nH]c(=O)[nH]c2=O)cc1 [4-[[(6-hydroxy-2,4-dioxo-1H-pyrimidin-5-yl)-oxomethyl]amino]benzoic acid butyl ester] | > 50 |
| Cn1c(N)c(S(=O)(=O)NCc2ccccc2)c(=O)n(C)c1=O [4-amino-1,3-dimethyl-2,6-dioxo-N-(phenylmethyl)-5-pyrimidinesulfonamide] | > 50 |
| Cc1cccc(NNC=C2C(=O)NC(=S)NC2=O)c1 [5-[[2-(3-methylphenyl)hydrazinyl]methylidene]-2-sulfanylidene-1,3-diazinane-4,6-dione] | > 50 |
| CCOC(=O)CCCCCNC(=O)c1ccc(F)cc1F [6-[(2,4-difluorobenzoyl)amino]hexanoic acid ethyl ester] | > 50 |
| CCOC(=O)CCCCCNC(=O)C1C(=O)NC(=O)NC1=O [6-[[hydroxy-(2,4,6-triketohexahydropyrimidin-5-ylidene)methyl]amino]hexanoic acid ethyl ester] | > 50 |
| CCOc1ccc(NC(=O)c2c(O)[nH]c(=O)[nH]c2=O)cc1 [N-(4-ethoxyphenyl)-6-hydroxy-2,4-dioxo-1H-pyrimidine-5-carboxamide] | > 50 |
| CCOC(=O)c1ccc(NC(=O)c2c(N)n(C)c(=O)[nH]c2=O)cc1 [UPDDI-00294856] | > 50 |
| Cn1c(N)c(C(=O)Nc2ccccc2)c(=O)[nH]c1=O [UPDDI-00398616] | > 50 |
| CCOC(=O)c1cccc(NC(=O)c2c(N)n(C)c(=O)[nH]c2=O)c1 [UPDDI-00398617] | > 50 |
| CCOC(=O)c1ccc(NC(=O)c2c(NCc3ccccc3)[nH]c(=O)[nH]c2=O)cc1 [UPDDI-00398618] | > 50 |
| CCOC(=O)c1ccccc1NC(=O)c1c(N)n(C)c(=O)[nH]c1=O [ethyl 2-[[6-azanyl-1-methyl-2,4-bis(oxidanylidene)pyrimidin-5-yl]carbonylamino]benzoate] | > 50 |
| CCOC(=O)c1cccc(NC(=O)c2c(NCc3ccccc3)[nH]c(=O)[nH]c2=O)c1 [ethyl 3-[[2,4-bis(oxidanylidene)-6-[(phenylmethyl)amino]-1H-pyrimidin-5-yl]carbonylamino]benzoate] | > 50 |
| CCOC(=O)c1ccc(NC(=O)c2c(N)n(Cc3ccccc3)c(=O)[nH]c2=O)cc1 [ethyl 4-[(6-amino-1-benzyl-2,4-dioxopyrimidine-5-carbonyl)amino]benzoate] | > 50 |
